{"source": "patent US20180028436A1", "about": "“TOPICAL FORMULATION OF HOPS EXTRACT” (priority 2016, published 2018)", "tested_on": "fibroblast cells of L929 cell line", "experiment": "MTT cytotoxicity assay on fibroblast cells", "type": "cell-based", "excerpt": "In this example, biocompatibility and toxicity of the topical formulation were studied. At first, cytotoxicity of the hops extract, hops nanoparticles (which were produced according to EXAMPLE 1), and β-cyclodextrin as the carrier were investigated as follows. The cultured fibroblast cells of L929 cell line were exposed to the hops extract, hops nanoparticles, and β-cyclodextrin in three test groups with different concentrations. Three test groups and the control group were studied in a 3-(4,5-dimethylthiazol-2-yl)-2,5-diphenyltetra-zolium bromide (MTT) assay using dimethyl thiazolyl diphenyl tetrazolium salt for evaluating the cell toxicity. FIG. 6A illustrates a MTT plot of the fibroblast cells after about 24 hours of exposing to the hops nanoparticles. Higher absorbance of the MTT dye indicates higher cellular proliferation.", "data": [{"smiles": "OC[C@H]1O[C@@H]2O[C@H]3[C@H](O)[C@@H](O)[C@@H](O[C@H]4[C@H](O)[C@@H](O)[C@@H](O[C@H]5[C@H](O)[C@@H](O)[C@@H](O[C@H]6[C@H](O)[C@@H](O)[C@@H](O[C@H]7[C@H](O)[C@@H](O)[C@@H](O[C@H]8[C@H](O)[C@@H](O)[C@@H](O[C@H]1[C@H](O)[C@H]2O)O[C@@H]8CO)O[C@@H]7CO)O[C@@H]6CO)O[C@@H]5CO)O[C@@H]4CO)O[C@@H]3CO", "note": "[β-cyclodextrin]", "values": [{"measurement": "IC50 Value 24 hours", "setting": "L929 fibroblast cells, MTT, 24 hours", "value": ">6000", "unit": "µg/mL"}, {"measurement": "IC50 Value 72 hours", "setting": "L929 fibroblast cells, MTT, 72 hours", "value": ">6000", "unit": "µg/mL"}, {"measurement": "cytotoxicity effect", "setting": "conclusion from IC50 values of TABLE 3", "value": "no cytotoxicity effect"}]}]}
